Reference: ChEMBL document CHEMBL4340512, “Discovery of novel triazolo[4,3-b]pyridazin-3-yl-quinoline derivatives as PIM inhibitors” (Eur J Med Chem, 2019)

Tests used:
[1] = test system: MIA PaCa-2; assay: Antiproliferative activity against human MIAPaCa2 assessed as combination index at 20 uM incubated for 72 hrs in presence of GI50 dose of GDC-0941 by CellTiter-Glo luminescence assay; format: functional
[2] = test system: NCI-H1650; assay: Antiproliferative activity against human NCI-H1650 cells incubated for 72 hrs by CellTiter-Glo luminescence assay; format: functional; details: NCI-H1650, 72 h
[3] = test system: U-251; assay: Antiproliferative activity against human U251 cells incubated for 72 hrs by CellTiter-Glo luminescence assay; format: functional; details: U-251, 72 h
[4] = test system: MV4-11; assay: Antiproliferative activity against human MV4-11 assessed as combination index at 10 uM incubated for 72 hrs in presence of GI50 dose of Taxotere by CellTiter-Glo luminescence assay; format: functional
[5] = test system: MCF7; assay: Antiproliferative activity against human MCF7 cells incubated for 72 hrs by CellTiter-Glo luminescence assay; format: functional; details: MCF7, 72 h
[6] = test system: U-87 MG; assay: Antiproliferative activity against human U87MG assessed as combination index at 20 uM incubated for 72 hrs in presence of GI50 dose of GDC-0941 by CellTiter-Glo luminescence assay; format: functional, U-87MG ATCC
[7] = test system: T47D; assay: Antiproliferative activity against human T47D assessed as combination index at 20 uM incubated for 72 hrs in presence of GI50 dose of GDC-0941 by CellTiter-Glo luminescence assay; format: functional
[8] = Clearance in iv dosed Balb/c mouse administered as single dose measured after 0.08 to 4 hrs by HPLC/MS analysis relative to hepatic blood flow; format: ADME, organism-based; details: in vivo
[9] = test system: JeKo-1; assay: Antiproliferative activity against human JeKo1 cells incubated for 72 hrs by CellTiter-Glo luminescence assay; format: functional; details: JeKo-1, 72 h
[10] = test system: A673; assay: Antiproliferative activity against human A673 cells incubated for 72 hrs by CellTiter-Glo luminescence assay; format: functional; details: A673, 72 h
[11] = test system: A498; assay: Antiproliferative activity against human A498 cells incubated for 72 hrs by CellTiter-Glo luminescence assay; format: functional; details: A498, 72 h
[12] = target: T1, Serine/threonine-protein kinase pim-1 (Homo sapiens, UniProt P11309); assay: Inhibition of PIM1 in human NCI-H1299 cells assessed as reduction in BAD phosphorylation at Ser-112 residue incubated for 4 hrs by ELISA; format: cell-based; details: read-out: EC50
[13] = test system: T47D; assay: Antiproliferative activity against human T47D assessed as combination index at 20 uM incubated for 72 hrs in presence of GI50 dose of Lapatinib by CellTiter-Glo luminescence assay; format: functional
[14] = target: T2, Receptor-type tyrosine-protein kinase FLT3 (Homo sapiens, UniProt P36888); assay: Inhibition of human FLT3 using EAIYAAPFAKKK as substrate incubated for 60 mins by fluorescence based assay
T2 sequence (P36888 whole entry): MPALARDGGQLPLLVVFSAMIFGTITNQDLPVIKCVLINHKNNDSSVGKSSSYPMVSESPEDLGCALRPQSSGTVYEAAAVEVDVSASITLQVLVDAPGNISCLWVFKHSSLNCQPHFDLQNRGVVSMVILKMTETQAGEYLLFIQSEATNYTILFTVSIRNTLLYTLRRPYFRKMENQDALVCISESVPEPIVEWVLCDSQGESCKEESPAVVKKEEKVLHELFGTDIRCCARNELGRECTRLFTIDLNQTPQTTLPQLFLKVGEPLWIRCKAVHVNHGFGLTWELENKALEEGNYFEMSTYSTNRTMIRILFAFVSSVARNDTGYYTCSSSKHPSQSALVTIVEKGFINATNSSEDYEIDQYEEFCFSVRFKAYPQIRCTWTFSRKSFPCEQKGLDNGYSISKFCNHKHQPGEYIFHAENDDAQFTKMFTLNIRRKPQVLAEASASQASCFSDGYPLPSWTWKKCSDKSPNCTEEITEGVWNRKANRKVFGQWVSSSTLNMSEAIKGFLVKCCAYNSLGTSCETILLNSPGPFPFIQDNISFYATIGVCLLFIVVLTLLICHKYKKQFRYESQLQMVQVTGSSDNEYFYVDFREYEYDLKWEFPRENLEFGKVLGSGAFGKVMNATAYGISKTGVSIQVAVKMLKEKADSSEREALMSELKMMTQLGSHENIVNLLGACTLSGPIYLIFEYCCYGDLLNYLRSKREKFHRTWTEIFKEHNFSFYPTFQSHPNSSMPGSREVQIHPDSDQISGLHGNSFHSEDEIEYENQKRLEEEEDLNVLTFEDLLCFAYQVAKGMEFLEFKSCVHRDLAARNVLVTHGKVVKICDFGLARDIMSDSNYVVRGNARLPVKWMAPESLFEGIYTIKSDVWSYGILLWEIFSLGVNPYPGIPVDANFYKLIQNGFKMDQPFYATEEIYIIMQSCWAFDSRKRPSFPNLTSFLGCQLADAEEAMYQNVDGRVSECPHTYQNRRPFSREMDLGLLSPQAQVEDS

[15] = test system: A-375; assay: Antiproliferative activity against human A375 cells incubated for 72 hrs by CellTiter-Glo luminescence assay; format: functional; details: A-375, 72 h
[16] = test system: PC-3; assay: Antiproliferative activity against human PC3 assessed as combination index at 20 uM incubated for 72 hrs in presence of GI50 dose of Bortezomib by CellTiter-Glo luminescence assay; format: functional
[17] = test system: HL-60; assay: Antiproliferative activity against human HL60 cells incubated for 72 hrs by CellTiter-Glo luminescence assay; format: functional; details: HL-60, 72 h
[18] = Clearance in iv dosed Balb/c mouse administered as single dose measured after 0.08 to 4 hrs by HPLC/MS analysis; format: ADME, organism-based; details: in vivo
[19] = test system: MV4-11; assay: Antiproliferative activity against human MV4-11 assessed as combination index at 10 uM incubated for 72 hrs in presence of GI50 dose of Lapatinib by CellTiter-Glo luminescence assay; format: functional
[20] = target: T1, Serine/threonine-protein kinase pim-1; assay: Inhibition of His tagged human recombinant PIM1 using PIM tide (ARKRRRHPSGPPTA) as substrate incubated for 1 hr by fluorescence based assay
[21] = test system: SW-620; assay: Antiproliferative activity against human SW620 cells incubated for 72 hrs by CellTiter-Glo luminescence assay; format: functional; details: SW-620, 72 h
[22] = test system: K562; assay: Antiproliferative activity against human K562 cells incubated for 72 hrs by CellTiter-Glo luminescence assay; format: functional; details: K562, 72 h
[23] = test system: Raji; assay: Antiproliferative activity against human Raji cells incubated for 72 hrs by CellTiter-Glo luminescence assay; format: functional
[24] = test system: SW480; assay: Antiproliferative activity against human SW480 cells incubated for 72 hrs by CellTiter-Glo luminescence assay; format: functional; details: SW480, 72 h
[25] = test system: SK-MEL19; assay: Antiproliferative activity against human SK-MEL-19 assessed as combination index at 5 uM incubated for 72 hrs in presence of GI50 dose of Palbociclib by CellTiter-Glo luminescence assay; format: functional
[26] = test system: MIA PaCa-2; assay: Antiproliferative activity against human MIAPaCa2 cells incubated for 72 hrs by CellTiter-Glo luminescence assay; format: functional; details: MIA PaCa-2, 72 h
[27] = test system: COLO 205; assay: Antiproliferative activity against human COLO205 cells incubated for 72 hrs by CellTiter-Glo luminescence assay; format: functional; details: COLO 205, 72 h

## COCCN1CCOc2c1cnn1c(-c3ccc4cccc(NCC5CCNCC5)c4n3)nnc21
[1]
  CI: 0.075
[2]
  GI50: 22.5 µM
[3]
  GI50: 17.8 µM
[4]
  CI: 0.526
[5]
  GI50: 19.6 µM
[6]
  CI: 0.008
[7]
  CI: 0.598
[8]
  CLH: < 30%
[9]
  GI50: 7.3 µM
[10]
  GI50: 12.7 µM
[11]
  GI50: 8.98 µM
[12]
  EC50: 0.262 µM
[13]
  CI: 0.0001
[14]
  IC50: > 10 µM
[15]
  GI50: 21.8 µM
[16]
  CI: 0.313
[17]
  GI50: 13.6 µM
[18]
  clearance: 21 mL/min/kg
[19]
  CI: 0.43
[20]
  IC50: 0.007 µM
[21]
  GI50: 8.73 µM
[22]
  GI50: 19.9 µM
[23]
  GI50: 20 µM
[24]
  GI50: 8.17 µM
[25]
  CI: 0.351
[26]
  GI50: 17.4 µM
[27]
  GI50: 5.25 µM
